Holding throughout (assay type): in vivo
Assay [1] has as its system phenyl-para-quinone writhing. Kind of assay: phenyl-para-quinone writhing assay in mice (analgesia). To be noted: 3.9 mg/kg s.c. (standard). For orientation: Writhing tests count abdominal constrictions after an irritant is injected.
The subject of assay [2] is phenyl-para-quinone writhing. Described as above. The settings on record: Mus musculus, sc, 20 mg/kg s.c., read-out: Analgesic Activity % Inhibition of Writhing at a Screening Dose of 20 mg/kg s.c. How it is done: Exptl. Biol. Med., 95, 729 (1957)]. Presented in Table I is the analgesic effect of some of the compounds of the invention, expressed as the percent decrease in writhing at a given dose (20 mg/kg s.c.).

Assay [3] concerns Scopolamine Induced Memory Deficit. Kind of assay: Dark Avoidance Assay (reversal of scopolamine induced memory deficit). The settings on record: mice, retest after 24 hours. On the procedure: The N-substituted-4-pyrimidinamines and pyrimidinediamines of the present invention are also useful in the treatment of various memory dysfunctions such as Alzheimer's disease.
In this assay, mice are tested for their ability to remember an unpleasant stimulus for a period of 24 hours. A mouse is placed in a chamber that contains a dark compartment; a strong incandescent light drives it to the dark compartment, where an electric shock is administered through metal plates on the floor. The animal is removed from the testing apparatus and tested again, 24 hours later, for the ability to remember the electric shock.
If scopolamine, an anticholinergic that is known to cause memory impairment is administered before an animal's initial exposure to the test chamber, the animal re-enters the dark compartment shortly after being placed in the test chamber 24 hours later. This effect of scopolamine is blocked by an active test compound, resulting in a greater interval before re-entry into the dark compartment.
The results for an active compound are expressed as the percent of a group of animals in which the effect of scopolamine is blocked, as manifested by an increased interval between being placed in the test chamber and re-entering the dark compartment.

Consider `CCC(=O)O[C@](Cc1ccccc1)(c1ccccc1)[C@H](C)CN(C)C` [Propoxyphene], for which, in assay [1], the “Analgesic Activity % Inhibition of Writhing” value stood at 50%.
Take `CCCN(c1cc(Cl)ncn1)n1cccc1` [6-Chloro-N-propyl-N-(1H-pyrrol-1-yl)-4-pyrimidinamine]: the inhibition in vivo at 20 mg/kg in assay [2] was 46%.
In the case of `CN(c1ccnc(Cl)n1)n1cccc1` [2-Chloro-N-methyl-N-(1H-pyrrol-1-yl)-4-pyrimidinamine], the inhibition in vivo at 20 mg/kg in assay [2] turned out to be 38%.
For the molecule `Cc1cn(Nc2ccncn2)c2ccccc12` [N-(3-methyl-1H-indol-1-yl)-4-pyrimidinamine], the “% of Animals with Scopolamine Induced Memory Deficit Reversed” value (“% of Animals” below) in assay [3] (1.25 mg/kg s.c. by body weight) was 20%.
With `CCCN(c1ccncn1)n1ccc2ccccc21` [N-(1H-Indol-1-yl)-N-propyl-4-pyrimidinamine], the “% of Animals” value in assay [3] (1.25 mg/kg s.c. by body weight) is 27%. For the same molecule, the inhibition in vivo at 20 mg/kg in assay [2] is 58%.
The corresponding values for `CCCN(c1cc(Cl)ncn1)n1ccc2ccccc21` [6-Chloro-N-(1H-indol-1-yl)-N-propyl-4-pyrimidinamine] are 47% and 40%.
As to `Cc1cn(Nc2cc(Nn3cc(C)c4ccccc43)ncn2)c2ccccc12` [N,N'-bis(3-methyl-1H-indol-1-yl)-4,6-pyrimidinediamine], the inhibition in vivo at 20 mg/kg in assay [2] was determined as 33%.
Still for that read-out and setting: with `CCCN(c1ccncn1)n1cc(C)c2ccccc21` [N-(3-methyl-1H-indol-1-yl)-N-propyl-4-pyrimidinamine] the figure was 60%.
The same measure, in the same setting: next, `CN(c1cc(Cl)ncn1)n1cccc1` [6-Chloro-N-methyl-N-(1H-pyrrol-1-yl)-4-pyrimidinamine]: 42%; `c1ccc2c(c1)c1ccccc1n2Nc1ccncn1` [N-(pyrimidin-4-yl)-9H-carbazol-9-amine, N-(Pyrimidin-4-yl)-9H-carbazol-9-amine]: 65%.
Same read-out and setting: with `c1ccn(Nc2ccncn2)c1` [N-(1H-pyrrol-1-yl)-4-pyrimidinamine, N-(1H-Pyrrol-1-yl)-4-pyrimidinamine] the figure was 30%.
Consider `N#Cc1cncnc1Nn1ccc2ccccc21` [5-Cyano-N-(1H-indol-1-yl)-4-pyrimidinamine], for which, in assay [3] (1.25 mg/kg s.c. by body weight), the “% of Animals” value was 27%. Besides, the inhibition in vivo at 20 mg/kg in assay [2] amounted to 44%.
The matching figures for `Cc1cn(Nc2cc(Cl)ncn2)c2ccccc12` [6-Chloro-N-(3-methyl-1H-indol-1-yl)-4-pyrimidinamine]: 33% and 45%.
As for `CCCN(c1ncncc1C#N)n1ccc2ccccc21` [5-Cyano-N-(1H-indol-1-yl)-N-propyl-4-pyrimidinamine], the inhibition in vivo at 20 mg/kg in assay [2] came out at 75%.
Turning to `CC[C@@H]1C(=O)OC[C@@H]1Cc1cncn1C` [Pilocarpine, reference compound], the “% of Animals” value in assay [3] (5.00 mg/kg s.c. by body weight (standard)) came out at 23%.
Turning to `Clc1cc(Nn2cccc2)ncn1` [6-Chloro-N-(1H-pyrrol-1-yl)-4-pyrimidinamine], the inhibition in vivo at 20 mg/kg in assay [2] came to 39%.
On the same count and under the same terms, next, `CCCN(c1cc(Cl)ncn1)n1cc(C)c2ccccc21` [6-Chloro-N-(3-methyl-1H-indol-1-yl)-N-propyl-4-pyrimidinamine]: 36%.

The values above are taken from US4983608A, “N-substituted-4-pyrimidinamines and pyrimidinediamines” (Hoechst-Roussell Pharmaceuticals, Inc., priority 1989, dated 1991).
